Laboratory results reported in US20200170983A1, “METHODS FOR THE TREATMENT OF BLADDER CANCER” (Cipla Limited, priority 2015, published 2020).
Where two headings read alike, the source gives them in different places.

Legend:
5637 = test: In vitro 2D assay (CellTiter-Blue cell viability); assay type: cell-based, human
Text: (§1) In the present study the human bladder cancer cell lines BXF 1036, BXF 1218, BXF 1352, 5637 and T24 were used. BXF 1036, BXF 1218 and BXF 1352 were established at Oncotest from the corresponding human patient derived xenograft. T24 was purchased from ATCC (Rockville, Md., USA) and 5637 was from DSMZ (Braunschweig, Germany). Authenticity of cell lines was confirmed at the DSMZ by STR (short tandem repeat) analysis, a PCR based DNA-fingerprinting methodology. Cell lines were routinely passaged once or twice weekly and maintained in culture for up to 20 passages. All cells were grown at 37° C. in a humidified atmosphere with 5% CO2 in RPMI 1640 medium (25 mM HEPES, with L-glutamine, #FG1385, Biochrom, Berlin, Germany) supplemented with 10% (v/v) fetal calf serum (Sigma, Taufkirchen, Germany) and 0.1 mg/mL gentamicin (Life Technologies, Karlsruhe, Germany).
(§2) The CellTiter-Blue® Cell Viability Assay (#G8081, Promega) was used according to manufacturer's instructions. Briefly, cells were harvested from exponential phase cultures, […] on the cell line's growth rate. After a 24 h recovery period to allow the cells to resume exponential growth, test compounds were added. Compounds were applied at 9 concentrations in half-log increments in duplicate and treatment continued for 96 h. After 96 h treatment of cells, 20 μL/well CellTiter-Blue® reagent was added.
(§3) Following an incubation period of up to four hours, fluorescence (FU) was measured by using the Enspire Multimode Plate Reader (excitation λ=531 nm, emission λ=615 nm). For calculations, the mean values of duplicate/sixfold (untreated control) data were used. Sigmoidal concentration-response curves were fitted to the data points (T/C values) obtained for each cell line using 4 parameter non-linear curve fit (Oncotest Warehouse Software).

BXF 1036 [1] = test: In vitro 2D assay (CellTiter-Blue cell viability); assay type: cell-based, human; conditions: BXF 1036, 96 h treatment
Text: as §1, §2, §3

BXF 1218 [2] = test: In vitro 2D assay (CellTiter-Blue cell viability); assay type: cell-based, human; conditions: BXF 1218, 96 h treatment
Text: as §1, §2, §3

BXF 1352 [3] = test: In vitro 2D assay (CellTiter-Blue cell viability); assay type: cell-based, human; conditions: BXF 1352, 96 h treatment
Text: as §1, §2, §3

T24 = test: In vitro 2D assay (CellTiter-Blue cell viability); assay type: cell-based, human
Text: as §1, §2, §3

[4] = test system: five selected human bladder cancer cell lines; test: In vitro 2D assay, mean over the panel; assay type: cell-based
Text: as §1, §2, §3

BXF 1036 [5] = test: In vitro 3D clonogenic assay (colony formation in semi-solid medium); assay type: cell-based, human; conditions: for IC50: BXF 1036, absolute IC50
Procedure: (§4) The clonogenic assay was carried out in a 96 well plate format using ultra low attachment plates. For each test, cells were prepared as described above and assay plates were prepared as follows: each test well contained a layer of semi-solid medium with tumor cells (50 μL), and a second layer of medium supernatant with or without test compound (100 μL). The cell layer consisted of 2·103 to 3·103 tumor cells per well, which were seeded in 50 μL/well cell culture medium (IMDM, supplemented with 20% (v/v) fetal calf serum, 0.01% (w/v) gentamicin, and 0.4% (w/v) agar. After 24 hours the test compounds were added after serial dilution in cell culture medium, and left on the cells for the duration of the experiment (continuous exposure, 100 μl drug overlay). Every plate included six untreated control wells and drug-treated groups in duplicate at 9 concentrations. Cultures were incubated at 37° C. and 7.5% CO2 in a humidified atmosphere for 8 to 13 days and monitored closely for colony growth using an inverted microscope. Within this period, ex vivo tumor growth led to the formation of colonies with a diameter of >50 μm. At the time of maximum colony formation, counts were performed with an automatic image analysis system (Bioreader 5000-Wa Biosys GmbH). 48 hours prior to evaluation, vital colonies were stained with a sterile aqueous solution of 2-(4-iodophenyl)-3-(4-nitrophenyl)-5-phenyltetrazolium chloride (1 mg/ml, 100 μl/well).

BXF 1218 [6] = test: as above; assay type: cell-based, human; conditions: for IC50: BXF 1218, absolute IC50
Procedure: as §4

BXF 1352 [7] = test: as above; assay type: cell-based, human; conditions: BXF 1352, absolute IC50
Procedure: as §4

BXF 5637 = test: as above; assay type: cell-based, human; conditions: BXF 5637, absolute IC50
Procedure: as §4

BXF T24 [8] = test: as above; assay type: cell-based, human; conditions: for IC50: BXF T24, absolute IC50
Procedure: as §4

[9] = test system: 5 human tumor cell lines of bladder cancer; test: In vitro 3D clonogenic assay, mean over the panel; assay type: cell-based; conditions: for IC50: colony formation; for IC50, Geo. Mean: geometric mean of five cell lines
Procedure: as §4

BXF 1218L = test: Combination study, 3D clonogenic assay, 5x5 matrix, Bliss independence; assay type: cell-based, human; conditions: monotherapy controls of the 5x5 combination matrix, read-out: IC50, colony formation, single agent
Procedure: The objective of this study was to assess anti-tumor efficacy of adapalene in combination with cisplatin in a 5×5 matrix combination format against various bladder cancer cell lines. Efficacy of the combinations was assessed by measuring anchorage-independent growth and in vitro tumor colony formation using a 3D clonogenic assay in cell lines BXF […], BXF […], and BXF T24. […] The compounds were tested in bladder cell lines, namely BXF […], BXF […], and BXF T24. Cells lines of BXF […] and BXF […] were established at Oncotest in Freiburg from the corresponding patient-derived xenografts. BXF T24 cells were obtained from American Type Culture Collection (Rockville, Md., USA). Authenticity of cell lines was confirmed at the DSMZ by STR analysis. Cell lines were routinely passaged once or twice weekly and maintained in culture for up to 20 passages. Cells were grown at 37° C. in a humidified atmosphere with 5% CO2 in RPMI 1640 medium (25 mM HEPES, with L-glutamine, Biochrom) supplemented with 10% (v/v) fetal calf serum and 0.1 mg/mL gentamicin. The percentage of viable cells was determined in a Neubauer-hemocytometer using trypan blue exclusion. […] Cultures were incubated at 37° C. and 7.5% CO2 in a humidified atmosphere for 8 to 13 days and monitored closely for colony growth using an inverted microscope. […]

BXF 1036L = test: as above; assay type: cell-based, human; conditions: monotherapy controls of the 5x5 combination matrix, read-out: IC50, colony formation, single agent
Procedure: (§5) The objective of this study was to assess anti-tumor efficacy of adapalene in combination with cisplatin in a 5×5 matrix combination format against various bladder cancer cell lines. Efficacy of the combinations was assessed by measuring anchorage-independent growth and in vitro tumor colony formation using a 3D clonogenic assay in cell lines BXF 1036L, BXF 1218L, and BXF T24.
(§6) The compounds were tested in bladder cell lines, namely BXF 1036L, BXF 1218L, and BXF T24. Cells lines of BXF 1036L and BXF 1218L were established at Oncotest in Freiburg from the corresponding patient-derived xenografts. BXF T24 cells were obtained from American Type Culture Collection (Rockville, Md., USA). Authenticity of cell lines was confirmed at the DSMZ by STR analysis.
(§7) Cell lines were routinely passaged once or twice weekly and maintained in culture for up to 20 passages. Cells were grown at 37° C. in a humidified atmosphere with 5% CO2 in RPMI 1640 medium (25 mM HEPES, with L-glutamine, Biochrom) supplemented with 10% (v/v) fetal calf serum and 0.1 mg/mL gentamicin. The percentage of viable cells was determined in a Neubauer-hemocytometer using trypan blue exclusion.
(§8) The clonogenic assay was carried out in a 96 well plate format using ultra low attachment plates. For each test cells were prepared as described above, and assay plates were prepared as follows: each test well contained a layer of semi-solid medium with tumor cells (50 μl), and a second layer of medium supernatant with or without test compounds (100 μl). The cell layer consisted of 5·10^3 to 7.5·10^3 tumor cells per well, which were seeded in 50 μl/well cell culture medium (IMDM, supplemented with 20% (v/v) fetal calf serum, 0.01% (w/v) gentamicin, and 0.4% (w/v) agar). After 24 h, the soft-agar layer was covered with 90 μl of the same culture medium without agar, and compounds were added after serial dilution in DMSO and transfer in cell culture medium and left on the cells for the duration of the experiment (continuous exposure, 100 μL total drug overlay). Every plate included six untreated control wells and drug-treated groups. Cultures were incubated at 37° C. and 7.5% CO2 in a humidified atmosphere for 8 to 13 days and monitored closely for colony growth using an inverted microscope. Within this period, ex vivo tumor growth led to the formation of colonies with a diameter of >50 μm. At the time of maximum colony formation, counts were performed with an automatic image analysis system (CellInsight NXT, Thermo Scientific). 48 hours prior to evaluation, vital colonies were stained with a sterile aqueous solution of 2-(4-iodophenyl)-3-(4-nitrophenyl)-5-phenyltetrazolium chloride (1 mg/ml, 100 μl/well).

BXF T24 [10] = test: as above; assay type: cell-based, human; conditions: BXF T24, monotherapy controls of the 5x5 combination matrix, read-out: IC50, colony formation, single agent
Procedure: as §5, §6, §7, §8

## N.N.[Cl][Pt][Cl] [Cisplatin, cisplatin]
5637; 2D assay, BXF 5637, 96 h treatment
  IC50: 9.71 µM
BXF 1036 [1]
  IC50: 9.53 µM
BXF 1218 [2]
  IC50: 7.08 µM
BXF 1352 [3]
  IC50: 17.1 µM
T24; BXF T24, 96 h treatment
  IC50: 4.15 µM
[4]; all cell lines tested, read-out: geometric mean absolute IC50 value
  IC50: 8.57 µM
BXF 1036 [5]
  IC50: 3.97 µM
BXF 1036 [5]; BXF 1036, based on relative IC50 values
  activity relative to mean IC50 (above average = individual IC50 value < 1/2 mean IC50): above average activity
BXF 1218 [6]
  IC50: 5.36 µM
BXF 1352 [7]
  IC50: 8.65 µM
BXF 5637
  IC50: 10.1 µM
BXF T24 [8]
  IC50: 52 µM
[9]; read-out: mean absolute IC50 value
  IC50: 9.93 µM
[9]; read-out: mean relative IC50 value
  IC50: 9.71 µM
[9]
  IC50, Geo. Mean: 9.93 µM
[9]; responding tumor models
  Bottom plateaus of the concentration-effect curves: < 10%
BXF 1218L
  IC50: 6.8 µM
BXF 1036L
  IC50: 6.09 µM
BXF T24 [10]
  IC50: 77.4 µM

## COc1ccc(-c2ccc3cc(C(=O)O)ccc3c2)cc1C12CC3CC(CC(C3)C1)C2 [Adapalene]
5637; Homo sapiens, 2D assay, 5637, 96 h treatment
  IC50: 5.42 µM
BXF 1036 [1]; Homo sapiens
  IC50: 9.91 µM
BXF 1218 [2]; Homo sapiens
  IC50: 6 µM
BXF 1352 [3]; Homo sapiens
  IC50: 14 µM
T24; Homo sapiens, T-24, T24, 96 h treatment
  IC50: 3.33 µM
[4]; Homo sapiens, geometric mean of five cell lines, read-out: IC50, Geo. Mean
  IC50: 6.84 µM
[4]; IC50 of T24 vs BXF 1352
  difference between the most sensitive and most resistant cell line: 4 fold
BXF 1036 [5]; Homo sapiens
  IC50: 9.72 µM
BXF 1218 [6]; BXF 1218
  activity relative to mean IC50 (above average = individual IC50 value < 1/2 mean IC50): above average activity
BXF 1218 [6]; Homo sapiens
  IC50: 4.76 µM
BXF 1352 [7]; Homo sapiens
  IC50: 12.8 µM
BXF 5637; Homo sapiens
  IC50: 9.11 µM
BXF T24 [8]; BXF T-24
  activity relative to mean IC50 (above average = individual IC50 value < 1/2 mean IC50): above average activity
BXF T24 [8]; Homo sapiens
  IC50: ≥ 100 µM
[9]; Homo sapiens, read-out: mean absolute IC50 value
  IC50: 14 µM
[9]; Homo sapiens, read-out: mean relative IC50 value
  IC50: 7.37 µM
[9]
  IC50, Geo. Mean: 14.01 µM
BXF 1036L; Homo sapiens
  IC50: 10.8 µM
BXF T24 [10]; Homo sapiens
  IC50: 3.44 µM
